Laboratory results: ChEMBL document CHEMBL3885881, “DrugMatrix”
Several values for one entry are separate records, joined by “and”; a condition that tells them apart may be missing. Equal values may be shown once.

Organism: Rattus norvegicus
Test: DrugMatrix - Regimen: Daily Repeat
Format: toxicity, organism-based, Sprague-Dawley
Design: regimen Daily Repeat, gender Male, age 6-8 weeks
Settings: in vivo, ip, route intraperitoneal, vehicle 100 % SALINE; for ABSOLUTE BASOPHIL / ABSOLUTE EOSINOPHIL / ABSOLUTE LYMPHOCYTE / ABSOLUTE MONOCYTE / ABSOLUTE SEGMENTED NEUTROPHIL / BASOPHIL / EOSINOPHIL / ERYTHROCYTE COUNT / HEMATOCRIT / HEMOGLOBIN / LEUKOCYTE COUNT / LYMPHOCYTE / MEAN CORPUSCULAR HEMOGLOBIN / MEAN CORPUSCULAR HEMOGLOBIN CONCENTRATION / MEAN CORPUSCULAR VOLUME / MONOCYTE / NEUTROPHIL / PLATELET COUNT: tissue Blood; for ALANINE AMINOTRANSFERASE / ALBUMIN / ALKALINE PHOSPHATASE / ASPARTATE AMINOTRANSFERASE / BLOOD UREA NITROGEN / CARBON DIOXIDE / CHLORIDE / CHOLESTEROL / CREATINE PHOSPHOKINASE / CREATININE / GLUCOSE / LACTATE DEHYDROGENASE / LIPASE / PHOSPHORUS / POTASSIUM / SODIUM / TOTAL BILIRUBIN / TOTAL PROTEIN / URIC ACID: tissue Plasma
[1] = 0 mg/kg, 120 h, dose level Control, time 5 day
[2] = 0 mg/kg, […], dose level Control, time 14 day
[3] = 0 mg/kg, […], dose level Control, time 28 day
[4] = 40 mg/kg, 120 h, dose level High, time 5 day
[5] = 40 mg/kg, […], dose level High, time 14 day
[6] = 40 mg/kg, […], dose level High, time 28 day

SMILES: CCN[C@@H]1C[C@H](N)[C@@H](O[C@H]2OC(CN)=CC[C@H]2N)[C@H](O)[C@H]1O[C@H]1OC[C@](C)(O)[C@H](NC)[C@H]1O [NETILMICIN]
- ABSOLUTE BASOPHIL [1]: 32 cells/µL
- ABSOLUTE EOSINOPHIL [1]: 110 cells/µL
- ABSOLUTE LYMPHOCYTE [1]: 6630 cells/µL
- ABSOLUTE MONOCYTE [1]: 140 cells/µL
- ABSOLUTE SEGMENTED NEUTROPHIL [1]: 1170 cells/µL
- BASOPHIL [1]: 0.38% and 0.35%
- EOSINOPHIL [1]: 1.28% and 0.62%
- ERYTHROCYTE COUNT [1]: 7.45 x10E6/uL and 7.26 x10E6/uL
- HEMATOCRIT [1]: 45.74% and 47.97%
- HEMOGLOBIN [1]: 14.72 G/DL and 15.38 G/DL
- LEUKOCYTE COUNT [1]: 8.11 x10E3/uL and 8.68 x10E3/uL
- LYMPHOCYTE [1]: 81.3% and 86.77%
- MEAN CORPUSCULAR HEMOGLOBIN [1]: 19.76 pg and 21.18 pg
- MEAN CORPUSCULAR HEMOGLOBIN CONCENTRATION [1]: 32.16 G/DL and 32.05 G/DL
- MEAN CORPUSCULAR VOLUME [1]: 61.38 fL and 66.15 fL
- MONOCYTE [1]: 1.76% and 1.57%
- NEUTROPHIL [1]: 14.9% and 9.53%
- PLATELET COUNT [1]: 1322.4 x10E3/uL and 1786 x10E3/uL
- ALANINE AMINOTRANSFERASE [1]: 25.8 u/L and 20.5 u/L
- ALBUMIN [1]: 3.64 G/DL and 4.35 G/DL
- ALKALINE PHOSPHATASE [1]: 233.6 u/L and 300 u/L
- ASPARTATE AMINOTRANSFERASE [1]: 81.4 u/L and 86.75 u/L
- BLOOD UREA NITROGEN [1]: 14.4 mg/dL and 17 mg/dL
- CARBON DIOXIDE [1]: 29 mmol/L
- CHLORIDE [1]: 105.6 MEQ/L and 106.25 MEQ/L
- CHOLESTEROL [1]: 69.2 mg/dL and 51.25 mg/dL
- CREATINE PHOSPHOKINASE [1]: 384.75 u/L
- CREATININE [1]: 0.56 mg/dL and 0.47 mg/dL
- GLUCOSE [1]: 125.4 mg/dL and 128.75 mg/dL
- LACTATE DEHYDROGENASE [1]: 105.4 u/L and 145 u/L
- LIPASE [1]: 22.4 u/L and 13.25 u/L
- PHOSPHORUS [1]: 11.48 mg/dL and 11.8 mg/dL
- POTASSIUM [1]: 5.52 MEQ/L and 6.58 MEQ/L
- SODIUM [1]: 147 MEQ/L and 151 MEQ/L
- TOTAL BILIRUBIN [1]: 0.2 mg/dL and 0.33 mg/dL
- TOTAL PROTEIN [1]: 6.1 G/DL and 6.53 G/DL
- URIC ACID [1]: 1.06 mg/dL and 1.95 mg/dL
- ABSOLUTE BASOPHIL [2]: 130 cells/µL
- ABSOLUTE EOSINOPHIL [2]: 140 cells/µL
- ABSOLUTE LYMPHOCYTE [2]: 13500 cells/µL
- ABSOLUTE MONOCYTE [2]: 400 cells/µL
- ABSOLUTE SEGMENTED NEUTROPHIL [2]: 2330 cells/µL
- HEMATOCRIT [2]: 45.98%
- ABSOLUTE BASOPHIL [3]: 91 cells/µL
- ABSOLUTE EOSINOPHIL [3]: 110 cells/µL
- ABSOLUTE LYMPHOCYTE [3]: 9910 cells/µL
- ABSOLUTE MONOCYTE [3]: 210 cells/µL
- ABSOLUTE SEGMENTED NEUTROPHIL [3]: 1560 cells/µL
- BASOPHIL [3]: 0.77%
- EOSINOPHIL [3]: 0.92%
- ERYTHROCYTE COUNT [3]: 8.21 x10E6/uL
- HEMATOCRIT [3]: 47.53%
- HEMOGLOBIN [3]: 15.65 G/DL
- LEUKOCYTE COUNT [3]: 11.91 x10E3/uL
- LYMPHOCYTE [3]: 83.34%
- MEAN CORPUSCULAR HEMOGLOBIN [3]: 19.07 pg
- MEAN CORPUSCULAR HEMOGLOBIN CONCENTRATION [3]: 32.93 G/DL
- MEAN CORPUSCULAR VOLUME [3]: 57.9 fL
- MONOCYTE [3]: 1.68%
- NEUTROPHIL [3]: 12.97%
- PLATELET COUNT [3]: 1323.8 x10E3/uL
- CARBON DIOXIDE [2]: 25 mmol/L
- ALANINE AMINOTRANSFERASE [3]: 30 u/L
- ALBUMIN [3]: 3.71 G/DL
- ALKALINE PHOSPHATASE [3]: 186.8 u/L
- ASPARTATE AMINOTRANSFERASE [3]: 78.2 u/L
- BLOOD UREA NITROGEN [3]: 14.2 mg/dL
- CHLORIDE [3]: 105.4 MEQ/L
- CHOLESTEROL [3]: 44.9 mg/dL
- CREATINE PHOSPHOKINASE [3]: 334.3 u/L
- CREATININE [3]: 0.6 mg/dL
- GLUCOSE [3]: 147.2 mg/dL
- LACTATE DEHYDROGENASE [3]: 123.1 u/L
- LIPASE [3]: 9.6 u/L
- PHOSPHORUS [3]: 10.01 mg/dL
- POTASSIUM [3]: 6.57 MEQ/L
- SODIUM [3]: 149.5 MEQ/L
- TOTAL BILIRUBIN [3]: 0.21 mg/dL
- TOTAL PROTEIN [3]: 6.66 G/DL
- URIC ACID [3]: 1.26 mg/dL
- ABSOLUTE BASOPHIL [4]: 100 cells/µL
- ABSOLUTE EOSINOPHIL [4]: 100 cells/µL
- ABSOLUTE LYMPHOCYTE [4]: 9410 cells/µL
- ABSOLUTE MONOCYTE [4]: 270 cells/µL
- ABSOLUTE SEGMENTED NEUTROPHIL [4]: 2070 cells/µL
- BASOPHIL [4]: 0.82% and 0.23%
- EOSINOPHIL [4]: 0.84% and 0.53%
- ERYTHROCYTE COUNT [4]: 7.28 x10E6/uL and 7.2 x10E6/uL
- HEMATOCRIT [4]: 44.78% and 47.4%
- HEMOGLOBIN [4]: 14.6 G/DL and 14.93 G/DL
- LEUKOCYTE COUNT [4]: 12 x10E3/uL and 6.78 x10E3/uL
- LYMPHOCYTE [4]: 78.86% and 87.63%
- MEAN CORPUSCULAR HEMOGLOBIN [4]: 20.02 pg and 20.77 pg
- MEAN CORPUSCULAR HEMOGLOBIN CONCENTRATION [4]: 32.56 G/DL and 31.5 G/DL
- MEAN CORPUSCULAR VOLUME [4]: 61.44 fL and 65.9 fL
- MONOCYTE [4]: 2.18% and 1.53%
- NEUTROPHIL [4]: 16.76% and 9.17%
- PLATELET COUNT [4]: 1295.4 x10E3/uL and 1697.67 x10E3/uL
- ALANINE AMINOTRANSFERASE [4]: 28.4 u/L and 20.25 u/L
- ALBUMIN [4]: 3.44 G/DL and 4.28 G/DL
- ALKALINE PHOSPHATASE [4]: 235.6 u/L and 305.25 u/L
- ASPARTATE AMINOTRANSFERASE [4]: 91.8 u/L and 87.25 u/L
- BLOOD UREA NITROGEN [4]: 12 mg/dL and 14.25 mg/dL
- CARBON DIOXIDE [4]: 24.75 mmol/L
- CHLORIDE [4]: 108.2 MEQ/L and 108.25 MEQ/L
- CHOLESTEROL [4]: 53.8 mg/dL and 53 mg/dL
- CREATINE PHOSPHOKINASE [4]: 194.6 u/L and 310.75 u/L
- CREATININE [4]: 0.5 mg/dL and 0.47 mg/dL
- GLUCOSE [4]: 137 mg/dL and 119.5 mg/dL
- LACTATE DEHYDROGENASE [4]: 83.75 u/L and 121.25 u/L
- LIPASE [4]: 16 u/L and 7 u/L
- PHOSPHORUS [4]: 10.04 mg/dL and 12.5 mg/dL
- POTASSIUM [4]: 6.52 MEQ/L and 5.8 MEQ/L
- SODIUM [4]: 151.2 MEQ/L and 152.75 MEQ/L
- TOTAL BILIRUBIN [4]: 0.12 mg/dL and 0.28 mg/dL
- TOTAL PROTEIN [4]: 5.86 G/DL and 6.35 G/DL
- URIC ACID [4]: 1.12 mg/dL and 2.02 mg/dL
- ABSOLUTE BASOPHIL [5]: 76 cells/µL
- ABSOLUTE EOSINOPHIL [5]: 100 cells/µL
- ABSOLUTE LYMPHOCYTE [5]: 7150 cells/µL
- ABSOLUTE MONOCYTE [5]: 160 cells/µL
- ABSOLUTE SEGMENTED NEUTROPHIL [5]: 980 cells/µL
- ABSOLUTE BASOPHIL [6]: 110 cells/µL
- ABSOLUTE EOSINOPHIL [6]: 110 cells/µL
- ABSOLUTE LYMPHOCYTE [6]: 11000 cells/µL
- ABSOLUTE MONOCYTE [6]: 220 cells/µL
- ABSOLUTE SEGMENTED NEUTROPHIL [6]: 1680 cells/µL
- BASOPHIL [6]: 0.84%
- EOSINOPHIL [6]: 0.81%
- ERYTHROCYTE COUNT [6]: 8.07 x10E6/uL
- HEMATOCRIT [6]: 45.66%
- HEMOGLOBIN [6]: 15.06 G/DL
- LEUKOCYTE COUNT [6]: 13.21 x10E3/uL
- LYMPHOCYTE [6]: 83.38%
- MEAN CORPUSCULAR HEMOGLOBIN [6]: 18.66 pg
- MEAN CORPUSCULAR HEMOGLOBIN CONCENTRATION [6]: 32.99 G/DL
- MEAN CORPUSCULAR VOLUME [6]: 56.56 fL
- MONOCYTE [6]: 1.71%
- NEUTROPHIL [6]: 12.78%
- PLATELET COUNT [6]: 1402.4 x10E3/uL
- CARBON DIOXIDE [5]: 27 mmol/L
- ALANINE AMINOTRANSFERASE [6]: 27.9 u/L
- ALBUMIN [6]: 3.58 G/DL
- ALKALINE PHOSPHATASE [6]: 144.2 u/L
- ASPARTATE AMINOTRANSFERASE [6]: 86.4 u/L
- BLOOD UREA NITROGEN [6]: 16.3 mg/dL
- CHLORIDE [6]: 108.5 MEQ/L
- CHOLESTEROL [6]: 59.4 mg/dL
- CREATINE PHOSPHOKINASE [6]: 139.4 u/L
- CREATININE [6]: 0.7 mg/dL
- GLUCOSE [6]: 120.4 mg/dL
- LACTATE DEHYDROGENASE [6]: 85.6 u/L
- LIPASE [6]: 22.9 u/L
- PHOSPHORUS [6]: 8.66 mg/dL
- POTASSIUM [6]: 5.83 MEQ/L
